In assay [1] the test system is tumor endothelial cells (TEC). Put plainly: Tumor endothelial cell proliferation, deuterium GC-MS fractional turnover. Format: in vivo, mice. The following applies: three weeks of continuous treatment; vs saline. As to the method: Tumor volumes were measured periodically (e.g., weekly). […] Deuterated water was given to the animals about one week prior to sacrifice to facilitate the measurement of cell proliferation. Angiogenesis and tumor cell proliferation were measured at six weeks by deuterium analyses using gas chromatography-mass spectrometry (GC-MS). Ribose derivatives extracted from DNA that incorporated deuterium during cell division can be identified by GC-MS and can be quantitated over total ribose from all DNA. This measurement allows the calculation of “newly synthesized DNA” during the deuterated water administration (i.e., pulse), from which the fractional turnover rate can be calculated using an exponential equation. Levels of tumor cell markers, angiogenesis-related polypeptides, and apoptosis-related proteins were evaluated by Western blot and immunohistochemistry.

For another assay, the system named is HIF-1a. Put plainly: Immunoblot of HIF-1a in tumor cell homogenate, normalized for GAPDH. Format: in vivo, mice. The conditions noted are these: tumor cells, 5 weeks of treatment; vs saline, p<0.05 (FIG. 24E). An excerpt:
FIGS. 24A-24D show the results of immunoblot analysis total cell homogenate obtained from tumor cells from saline control (FIGS. 24 A and 24C) and δPKC activator (FIGS. 24 B and 24D) treated animals (5 weeks). The blots were probed with an antibody specific for hypoxia-inducible factors (HIF-1a, FIGS. 24A and 24B) or an antibody specific for GAPDH as a control (FIGS. 24C and 24D). FIG. 24E is a graph showing the relative levels of HIF-1a (normalized for GADPH) from FIGS. 24A-24D.
Tumor volumes were measured periodically (e.g., weekly). The mice were typically sacrificed after 5 weeks of treatment. […] Angiogenesis and tumor cell proliferation were measured at six weeks by deuterium analyses using gas chromatography-mass spectrometry (GC-MS). Ribose derivatives extracted from DNA that incorporated deuterium during cell division can be identified by GC-MS and can be quantitated over total ribose from all DNA. This measurement allows the calculation of “newly synthesized DNA” during the deuterated water administration (i.e., pulse), from which the fractional turnover rate can be calculated using an exponential equation. Levels of tumor cell markers, angiogenesis-related polypeptides, and apoptosis-related proteins were evaluated by Western blot and immunohistochemistry. […]
(A western blot detects proteins with antibodies after separation by electrophoresis.)

The subject of another assay is CD31. Put plainly: CD31 staining of tumor samples (tumor vessels). Format: in vivo, mice. The conditions noted are these: 5 weeks of treatment; vs control animals. An excerpt:
(§1) Tumor cells (mixed cell populations) obtained from control and βIIPKC peptide inhibitor βIIV5-3-treated animals following 5-weeks of treatment were subjected to histological analysis to determine the effect of the βIIPKC peptide inhibitor on apoptosis (data not shown). CD31 is a tumor endothelial marker used to identify […] in a sample. CD31 (PECAM-1) has been implicated in angiogenesis, apoptosis, cell migration, modulation of integrin-mediated cell adhesion, transendothelial migration, negative regulation of immune cell signaling, autoimmunity, macrophage phagocytosis, IgE-mediated anaphylaxis, and thrombosis. […]
(§2) Tumor volumes were measured periodically (e.g., weekly). […] Angiogenesis and tumor cell proliferation were measured at six weeks by deuterium analyses using gas chromatography-mass spectrometry (GC-MS). Ribose derivatives extracted from DNA that incorporated deuterium during cell division can be identified by GC-MS and can be quantitated over total ribose from all DNA. This measurement allows the calculation of “newly synthesized DNA” during the deuterated water administration (i.e., pulse), from which the fractional turnover rate can be calculated using an exponential equation. Levels of tumor cell markers, angiogenesis-related polypeptides, and apoptosis-related proteins were evaluated by Western blot and immunohistochemistry.

For assay [2], the system named is vascular endothelial growth factor (VEGF). Put plainly: VEGF concentration in prostate cancer tumor cells (ELISA). In kind it is in vivo, mice. The following applies: three weeks of continuous treatment; vs saline. (An ELISA detects its analyte on a solid surface through an enzyme-linked reagent.)
Assay [3] relates to human prostate cancer cells (PC3). Put plainly: PC3 prostate tumor xenograft growth in nude mice, osmotic pump delivery. In kind it is in vivo. An excerpt: Male nude mice were subcutaneously injected with human prostate cancer cells (PC3) at six weeks of age. After one week, the animals were implanted with an ALZEJ® (Alza Corporation, Mountain View, Calif.) osmotic pump for delivery of a control saline solution, a control peptide of TAT (residues 47-57, Y[…] ID NO:85), or an inhibitor or activator of PKC (e.g., δV1-1 attached to TAT (YGRKKRRQRRR-CC-SFNSYELGSL; SEQ ID NO: 143), δV1-7 attached to TAT (YGRKKRRQRRR-CC-MRAAEDPM; SEQ ID NO: 144), or βIIV5-3 attached to TAT (YGRKKRRQRRR-CC-QEVIRN; SEQ ID NO: 145). The rate of administration was 0.5 μl/hr, unless otherwise noted. Typical inhibitor or activator concentrations were 3-30 mM. In some cases, a lower concentration was administered initially (e.g., 3 mM) followed by a higher concentration (e.g., 30 mM) in the later weeks of treatment.
(§3) Tumor volumes were measured periodically (e.g., weekly). The mice were typically sacrificed after 5 weeks of treatment. Deuterated water was given to the animals about one week prior to sacrifice to facilitate the measurement of cell proliferation. Angiogenesis and tumor cell proliferation were measured at six weeks by deuterium analyses using gas chromatography-mass spectrometry (GC-MS). Ribose derivatives extracted from DNA that incorporated deuterium during cell division can be identified by GC-MS and can be quantitated over total ribose from all DNA. This measurement allows the calculation of “newly synthesized DNA” during the deuterated water administration (i.e., pulse), from which the fractional turnover rate can be calculated using an exponential equation. Levels of tumor cell markers, angiogenesis-related polypeptides, and apoptosis-related proteins were evaluated by Western blot and immunohistochemistry.

In assay [4] the test system is tumor cells (mixed cell populations). Put plainly: Apoptosis histology of tumor samples (TUNEL, Hoechst, cleaved caspase 3). In kind it is in vivo, mice.
From the text: as §1, §2

The test system of a further assay is Ki67. Put plainly: Ki67 staining of tumor tissue. Format: in vivo, mice. The conditions noted are these: vs saline. As to the method:
Tumor tissue obtained from animals treated with a control saline solution or the δPKC activator peptide were stained with an antibody specific for Ki67 to detect proliferating cells in all phases of the cell cycle (i.e., G1, S-, G2-, and M-phase), but not in resting cells (G0-phase).
as §3

Another assay deals with T1, δPKC (Homo sapiens, UniProt Q05655).
T1 construct: endogenous in cells; host or cells: PC3 human prostate cancer xenograft grown in nude mice
T1 sequence (Q05655 whole entry): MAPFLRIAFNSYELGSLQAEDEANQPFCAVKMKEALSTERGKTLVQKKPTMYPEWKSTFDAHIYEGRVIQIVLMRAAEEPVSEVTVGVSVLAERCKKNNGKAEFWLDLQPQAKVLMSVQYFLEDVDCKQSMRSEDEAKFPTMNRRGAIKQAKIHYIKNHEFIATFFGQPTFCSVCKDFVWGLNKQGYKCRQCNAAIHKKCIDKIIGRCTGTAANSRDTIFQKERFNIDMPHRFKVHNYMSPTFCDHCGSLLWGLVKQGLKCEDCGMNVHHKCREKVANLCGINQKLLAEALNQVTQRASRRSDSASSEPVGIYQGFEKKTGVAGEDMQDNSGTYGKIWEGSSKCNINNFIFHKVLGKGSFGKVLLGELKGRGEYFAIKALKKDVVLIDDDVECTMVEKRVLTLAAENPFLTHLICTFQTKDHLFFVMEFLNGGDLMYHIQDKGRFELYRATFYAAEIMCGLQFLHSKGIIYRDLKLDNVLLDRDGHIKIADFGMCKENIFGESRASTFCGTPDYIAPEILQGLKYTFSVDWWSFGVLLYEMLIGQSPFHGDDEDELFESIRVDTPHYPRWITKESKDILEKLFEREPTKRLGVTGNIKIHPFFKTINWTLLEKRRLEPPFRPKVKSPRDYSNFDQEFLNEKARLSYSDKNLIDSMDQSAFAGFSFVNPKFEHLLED
Put plainly: Immunoblot of particulate vs total δPKC in tumor cells from treated mice. In kind it is in vivo. The following applies: treated for 5 weeks, vs control (FIG. 18E). The protocol: (§4) Male nude mice were subcutaneously injected with human prostate cancer cells (PC3) at six weeks of age. […]
(§5) Tumor volumes were measured periodically (e.g., weekly). […] Angiogenesis and tumor cell proliferation were measured at six weeks by deuterium analyses using gas chromatography-mass spectrometry (GC-MS). Ribose derivatives extracted from DNA that incorporated deuterium during cell division can be identified by GC-MS and can be quantitated over total ribose from all DNA. This measurement allows the calculation of “newly synthesized DNA” during the deuterated water administration (i.e., pulse), from which the fractional turnover rate can be calculated using an exponential equation. Levels of tumor cell markers, angiogenesis-related polypeptides, and apoptosis-related proteins were evaluated by Western blot and immunohistochemistry. […]

The next assay concerns tumor cells (TC). Put plainly: Tumor cell proliferation, deuterium GC-MS fractional turnover. In kind it is in vivo, mice. The protocol:
as §3

Another assay concerns the target T2, εPKC (Homo sapiens, UniProt Q02156).
T2 construct: endogenous in cells; host or cells: PC3 human prostate cancer xenograft grown in nude mice
T2 sequence (Q02156 1-737): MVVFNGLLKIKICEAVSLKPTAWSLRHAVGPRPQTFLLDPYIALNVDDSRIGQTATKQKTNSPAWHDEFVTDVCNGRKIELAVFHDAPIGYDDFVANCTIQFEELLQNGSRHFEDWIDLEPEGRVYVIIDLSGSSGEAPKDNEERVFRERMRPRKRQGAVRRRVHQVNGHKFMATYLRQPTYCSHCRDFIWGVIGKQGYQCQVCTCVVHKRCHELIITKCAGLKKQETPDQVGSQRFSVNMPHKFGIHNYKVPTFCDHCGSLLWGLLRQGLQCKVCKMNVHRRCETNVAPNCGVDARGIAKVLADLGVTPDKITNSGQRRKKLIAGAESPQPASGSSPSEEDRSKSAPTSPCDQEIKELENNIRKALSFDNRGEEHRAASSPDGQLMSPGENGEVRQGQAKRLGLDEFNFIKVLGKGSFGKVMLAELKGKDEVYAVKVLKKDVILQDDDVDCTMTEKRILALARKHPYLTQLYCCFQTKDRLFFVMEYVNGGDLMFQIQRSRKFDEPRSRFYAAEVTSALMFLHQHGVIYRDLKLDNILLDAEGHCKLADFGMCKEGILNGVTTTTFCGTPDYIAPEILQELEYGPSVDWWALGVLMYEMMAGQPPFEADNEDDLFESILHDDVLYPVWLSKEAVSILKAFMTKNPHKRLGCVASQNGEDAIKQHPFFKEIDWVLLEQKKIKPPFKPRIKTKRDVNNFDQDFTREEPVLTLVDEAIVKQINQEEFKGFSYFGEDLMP
Put plainly: Immunoblot of particulate vs total εPKC in tumor cells from treated mice. In kind it is in vivo. The conditions noted are these: tumor cells from treated animals; vs control (FIG. 19E). The protocol: as §4, §5

Bridge positions count the residues as written; N and C are the ends. Ends that are not written are not given here.

Experimental findings from patent US20090048174A1, “Methods for inhibiting angiogenesis and tumor growth by inhibition of beta or delta protein kinase C” (priority 2006, published 2009) are described below.

In the case of “δV1-7: activator of δPKC, amino acid sequence MRAAEDPM (SEQ ID NO: 146), attached to TAT (YGRKKRRQRRR-CC-MRAAEDPM; SEQ ID NO: 144) (YGRKKRRQRRRCCMRAAEDPM; disulfide 12-13 (inferred))”, the “rate of tumor endothelial cell (TEC) proliferation, fractional turnover per day” value in assay [1] was “similar”. Also, the “levels of HIF-1a normalized for GAPDH” value with HIF-1a is recorded as “several-fold increase”. In addition, the “CD31 staining (tumor vascularization)” value with CD31 is given as “several-fold increase”. Further, the “concentration of VEGF in prostate cancer tumor cells” value in [2] is “not increased”. The tumor mass result in assay [3] (3 weeks of treatment, vs saline (FIG. 25C)) is recorded as “decreased”. The tumor volume entry in assay [3] (continuous treatment, vs saline and Tat control groups, p=0.004 (FIG. 20)) is “significantly increased tumor volume”; in [3] (three weeks of treatment, peptide conjugated to TAT, vs TAT control (FIG. 17)), “increase in tumor volume”. In addition, the “percentage of cells stained by TUNEL labeling” value in assay [4] (mixed tumor cell population, 5 weeks of treatment, vs saline (FIG. 26)) is reported as “increased TUNEL labeling only slightly”. For the same substance, the “tumor volume as a function of the percent of TUNEL-positive cells” value in assay [4] (vs saline control animals (FIG. 27A-27C)) was “larger tumor volumes for a given percent of TUNEL-positive cells”. Besides, in the assay with Ki67, the “Ki67 staining (proliferating cells)” value was “increased Ki67 staining”. In addition, the “levels of particulate δPKC compared to total δPKC” value in the assay with δPKC is reported as “approximately doubled”. In addition, the “rate of tumor cell proliferation” value in the assay with tumor cells (TC) (5 weeks of treatment (end-stage), vs saline (FIG. 22)) is “substantial increase”. In the assay on tumor cells (TC) (three weeks of continuous treatment, vs saline), the “rate of tumor cell (TC) proliferation, fractional turnover per day” value is recorded as “appeared to decrease”. Also, the “levels of particulate εPKC compared to total εPKC” value in the assay with εPKC is given as “do not substantially change”.
